Reference: publication PMC7532339, “A cell-based large-scale screening of natural compounds for inhibitors of SARS-CoV-2” (Signal Transduction and Targeted Therapy, 2020)
Where two headings read alike, the source gives them in different places.

Columns and labels:
Vero-E6 cells = assay: Cytotoxicity assay (CCK-8); type: cell-based; details: Vero-E6 cells, 48 h, CCK-8
Procedure: (§1) Vero-E6 cells were seeded in 96-well plates (1 × 10^4 cells per well) and allowed to grow for 24 h before treatment. Then, serial 2-fold dilutions of compounds were added to the cells. At 48 h, the cells were incubated with 10 μL CCK-8 reagent (cell counting kit-8, Bimake) for 1 h at 37 °C. The absorbance at 450 nm was read by a Microplate Reader (Varioskan Flash, Thermo Fisher). Cell viability was expressed as a percentage of the treated cells to the control (untreated) cells. For each compound concentration, three wells were performed in parallel, and the mean values of the cell viability were calculated.

SARS-CoV-2 [1] = assay: Antiviral assay (viral RNA in supernatant by qRT-PCR); type: cell-based, SARS-CoV-2 (WIV-04)
SARS-CoV-2 [2] = assay: CPE-based HTS assay (CPE reduction quantified by CCK-8 cell viability); details: for inhibition at 10 µM: Severe acute respiratory syndrome coronavirus 2, Vero C1008, 48 h, read-out: protection from CPE; for protection against SARS-CoV-2 infection: known inhibitors used as positive controls
[3] = Cytotoxicity assay (CCK-8); type: cell-based; details: African green monkey
Procedure: as §1

SARS-CoV-2 [4] = assay: Addition of sodium and potassium assay; type: cell-based, SARS-CoV-2 (WIV-04)
[5] = primary screening, compound 10 µM, Vero-E6 cells, MOI 0.01, 48 hpi
[6] = Vero-E6 cells, 48 h, CCK-8, read-out: CC50
[7] = Severe acute respiratory syndrome coronavirus 2, Vero C1008, read-out: EC50
[8] = Severe acute respiratory syndrome coronavirus 2, Vero C1008

CC1(C)CC[C@]2(C(=O)O)CC[C@]3(C)C(=CC[C@@H]4[C@@]5(C)CC[C@H](O[C@@H]6O[C@H](C(=O)O)[C@@H](O)[C@H](O[C@@H]7OC[C@@H](O)[C@H](O)[C@H]7O)[C@H]6O)C(C)(C)[C@@H]5CC[C@]43C)[C@@H]2C1 [Momordinic]
CC50 (Vero-E6 cells): > 40 µM
EC50 (SARS-CoV-2 [1]; read-out: EC50): 3.53 µM

CC(C)=CCc1cc2c(cc1O)O[C@H](c1ccc(O)cc1)CC2=O [bavachin]
inhibition at 10 µM (SARS-CoV-2 [2]; [5]): > 50%

CC(=O)O[C@H]1[C@H]2O[C@]23[C@@H]2CC[C@@H]4C[C@@H](O)CC[C@]4(C)[C@H]2CC[C@]3(C)[C@H]1c1ccc(=O)oc1 [Cinobufagin]
CC50 at 48 h [3, 6]: > 40 µM
EC50 (SARS-CoV-2 [1]; [7]): 0.018 µM

COC(=O)[C@@]12OC[C@]34[C@H]([C@@H](O)[C@@H]1O)[C@@]1(C)CC(=O)C(O)=C(C)[C@@H]1C[C@H]3OC(=O)[C@H](OC(=O)CC(C)C)[C@@H]24 [Bruceine A]
CC50 at 48 h [3]: 31.4 µM
EC50 (SARS-CoV-2 [1]; [8]): 0.011 µM

C=C1C(=O)O[C@@H]2C[C@@]3(C)CCC[C@H](C)C3=C[C@H]12 [Alantolactone]
CC50 (Vero-E6 cells): 36.7 µM
EC50 (SARS-CoV-2 [1]; read-out: EC50): 1.72 µM

IFN-α
protection against SARS-CoV-2 infection (SARS-CoV-2 [2]; […]): provided protection

C/C=C/c1cc(OC)c2c(c1)C(C)C(c1ccc(O)c(OC)c1)O2 (centres unmarked) [Dehydrodiisoeugenol]
CC50 (Vero-E6 cells): > 100 µM
EC50 (SARS-CoV-2 [1]; read-out: EC50): 10.3 µM

CCN(CC)CCCC(C)Nc1ccnc2cc(Cl)ccc12 (centres unmarked) [chloroquine, reference compound]
EC50 (SARS-CoV-2 [1]; Severe acute respiratory syndrome coronavirus 2, Vero C1008, 48 h, read-out: EC50 determined by viral RNA copies): 1.78 µM
EC50 (SARS-CoV-2 [2]; Severe acute respiratory syndrome coronavirus 2, Vero C1008, Vero-E6 cells, MOI 0.01, 48 hpi, CCK-8, read-out: EC50 (inhibition of CPE)): 2.65 µM
protection against SARS-CoV-2 infection (SARS-CoV-2 [2]; Vero-E6 cells, MOI 0.01, 48 h): provided protection

CC(C)=CCc1cc2c(cc1O)oc(=O)c1c3ccc(O)cc3oc21 [psoralidin]
protection from CPE (SARS-CoV-2 [2]): > 50%

C[C@H]1COC2=C1C(=O)C(=O)c1c2ccc2c1CCCC2(C)C [Cryptotanshinone]
CC50 at 48 h [3, 6]: > 100 µM
EC50 (SARS-CoV-2 [1]; [7]): 5.02 µM
inhibition at 10 µM (SARS-CoV-2 [2]): > 50%

C=C[C@H]1[C@H](O[C@@H]2O[C@H](CO)[C@@H](O)[C@H](O)[C@H]2O)OC=C(C(=O)OC)[C@H]1CCOC(=O)c1cc(O)c(O)c(O)c1 [Cornuside]
CC50 (Vero-E6 cells): > 40 µM
EC50 (SARS-CoV-2 [1]; read-out: EC50): 5.26 µM

CC(=O)O[C@H]1C[C@]2(O)[C@@H]3CC[C@@H]4C[C@@H](O)CC[C@]4(C)[C@H]3CC[C@]2(C)[C@H]1c1ccc(=O)oc1 [Bufotaline]
CC50 (Vero-E6 cells): > 40 µM
EC50 (SARS-CoV-2 [1]; read-out: EC50): 0.0259 µM

COc1ccc(C(=O)O[C@H]2CC[C@@]3(C)[C@@H]4CC[C@H]5[C@]6(O)C[C@H](O)[C@@]7(O)[C@@H](CN8C[C@@H](C)CC[C@H]8[C@@]7(C)O)[C@]6(O)C[C@@]53O[C@]24O)cc1OC [Veratridine]
CC50 at 48 h [3, 6]: > 100 µM
EC50 (SARS-CoV-2 [1]; [7]): 2.38 µM

C=C(C)[C@@H]1CC[C@]2(C)[C@H](CC=C3[C@@H]4[C@@H](C)[C@H](C)CC[C@]4(C)CC[C@]32C)[C@@]1(C)CCC(=O)O [Roburicacid]
CC50 (Vero-E6 cells): > 40 µM
EC50 (SARS-CoV-2 [1]; read-out: EC50): 5.27 µM

COc1ccc2cc1Oc1ccc(cc1)C[C@H]1c3cc(c(OC)cc3CCN1C)Oc1c(O)c(OC)cc3c1[C@H](C2)N(C)CC3 [fangchinoline]
inhibition at 10 µM (SARS-CoV-2 [2]): > 50%

C=C1C(=O)[C@]23[C@H](O)[C@H]1CC[C@H]2[C@@]12CO[C@]3(O)[C@@H](O)[C@@H]1C(C)(C)CC[C@@H]2O [Oridonin]
CC50 at 48 h [3]: > 40 µM
EC50 (SARS-CoV-2 [1]; [7]): 1.46 µM

Brusatol
EC50 (SARS-CoV-2 [1]; read-out: EC50): 0.0492 µM

COc1ccc2cc1Oc1ccc(cc1)C[C@H]1c3c(cc4c(c3Oc3cc5c(cc3OC)CCN(C)[C@@H]5C2)OCO4)CCN1C [cepharanthine]
inhibition at 10 µM (SARS-CoV-2 [2]): > 50%

CB6: neutralizing human antibody CB6
protection against SARS-CoV-2 infection (SARS-CoV-2 [2]; […]): provided protection

COc1cc2c(cc1OC)[C@@H](Cc1ccc(O)c(Oc3cc4c(cc3OC)CCN(C)[C@@H]4Cc3ccc(O)cc3)c1)N(C)CC2 [Liensinine]
CC50 (Vero-E6 cells): 25.4 µM
EC50 (SARS-CoV-2 [1]; read-out: EC50): 2.54 µM

CCC(CC)COC(=O)[C@H](C)N[P@](=O)(OC[C@H]1O[C@@](C#N)(c2ccc3c(N)ncnn23)[C@H](O)[C@@H]1O)Oc1ccccc1 [remdesivir, reference compound]
protection against SARS-CoV-2 infection (SARS-CoV-2 [2]; Vero-E6 cells, MOI 0.01, 48 h): provided protection

CO[C@H]1C[C@H](O[C@H]2CC[C@]3(C)[C@H]4CC[C@]5(C)[C@@H](C6=CC(=O)OC6)CC[C@]5(O)[C@@H]4CC[C@]3(O)C2)O[C@H](C)[C@H]1O[C@@H]1O[C@H](CO)[C@@H](O)[C@H](O)[C@H]1O [Periplocoside]
CC50 (Vero-E6 cells): > 40 µM
EC50 (SARS-CoV-2 [1]; read-out: EC50): 0.0657 µM

CC(C)=CCc1c(O)ccc(C(=O)/C=C/c2ccc(O)cc2)c1O [isobavachalcone]
inhibition at 10 µM (SARS-CoV-2 [2]; [5]): > 50%

C=C1CC[C@H]2C(=C)CC[C@H]3C(=C)C(=O)O[C@@H]3[C@@H]12 [Dehydrocostus lactone]
CC50 at 48 h [3]: 36.2 µM
EC50 (SARS-CoV-2 [1]; [7]): 2.32 µM

O[C@H]1[C@H]2c3cc4c(cc3CN3CCC(=C[C@@H]1O)[C@H]23)OCO4 [lycorine]
inhibition at 10 µM (SARS-CoV-2 [2]): > 50%

C=C1C(=O)O[C@@H]2C[C@@]3(C)CCCC(=C)[C@@H]3C[C@H]12 [Isoalantolactone]
CC50 at 48 h [3, 6]: > 40 µM
EC50 (SARS-CoV-2 [1]; [7]): 1.48 µM

C[C@H]1O[C@@H](O[C@H]2[C@@H](O)C[C@H](O[C@H]3[C@@H](O)C[C@H](O[C@H]4CC[C@@]5(C)[C@H](CC[C@@H]6[C@@H]5C[C@@H](O)[C@]5(C)[C@@H](C7=CC(=O)OC7)CC[C@]65O)C4)O[C@@H]3C)O[C@@H]2C)C[C@H](O)[C@@H]1O [Digoxin, reference compound]
CC50 at 48 h [3, 6]: > 40 µM
EC50 (SARS-CoV-2 [1]; [7]): 0.154 µM
inhibition at 10 µM (SARS-CoV-2 [2]): > 50%

C[C@]12CC[C@H](O)C[C@H]1CC[C@@H]1[C@@H]2CC[C@]2(C)[C@@H](c3ccc(=O)oc3)CC[C@]12O [Bufalin]
CC50 at 48 h [3, 6]: > 40 µM
EC50 (SARS-CoV-2 [1]; [7]): 0.018 µM
inhibitory effect on SARS-CoV-2 with added extracellular KCl (SARS-CoV-2 [4]): suppressed by KCl
inhibitory effect on SARS-CoV-2 with added extracellular NaCl (SARS-CoV-2 [4]): enhanced by NaCl
inhibition at 10 µM (SARS-CoV-2 [2]): > 50%

COc1ccc2cc1Oc1ccc(cc1)C[C@H]1c3cc(c(OC)cc3CCN1C)Oc1c(OC)c(OC)cc3c1[C@H](C2)N(C)CC3 [tetrandrine]
inhibition at 10 µM (SARS-CoV-2 [2]; [5]): > 50%

Cc1coc2c1C(=O)C(=O)c1c-2ccc2c1CCCC2(C)C [tanshinone IIA]
inhibition at 10 µM (SARS-CoV-2 [2]; [5]): > 50%

COc1ccc(C[C@@H]2c3cc(Oc4cc(C[C@@H]5c6cc(O)c(OC)cc6CCN5C)ccc4O)c(OC)cc3CCN2C)cc1 [Isoliensinine]
CC50 at 48 h [3]: 40 µM
EC50 (SARS-CoV-2 [1]; [7]): 1.61 µM

COC(=O)[C@H]1[C@H]2C[C@@H]3c4[nH]c5cc(OC)ccc5c4CCN3C[C@H]2C[C@@H](OC(=O)c2cc(OC)c(OC)c(OC)c2)[C@@H]1OC [reserpine, reference compound]
inhibition at 10 µM (SARS-CoV-2 [2]; [5]): > 50%

COc1cc(/C=C/C=O)ccc1O [Coniferylaldehyde]
CC50 at 48 h [3]: > 40 µM
EC50 (SARS-CoV-2 [1]; [8]): 11 µM
